Experimental data taken from ChEMBL document CHEMBL4507291 (2021).

Tests used:
[1] = test system: Tyrosine-protein kinase ABL1 (Homo sapiens), P00519 [Y253F]; assay: ABL1 Y253F Kinase screen; settings: Compound concentration 1.0 uM
[2] = test system: Epidermal growth factor receptor (Homo sapiens), P00533 [L861Q]; assay: EGFR (ErbB1) L861Q Kinase screen; settings: Compound concentration 1.0 uM
[3] = biological target: T1, Ephrin type-A receptor 8 (Homo sapiens) (UniProt P29322); assay: EPHA8 Kinase screen; settings: Compound concentration 1.0 uM
T1 sequence (whole entry): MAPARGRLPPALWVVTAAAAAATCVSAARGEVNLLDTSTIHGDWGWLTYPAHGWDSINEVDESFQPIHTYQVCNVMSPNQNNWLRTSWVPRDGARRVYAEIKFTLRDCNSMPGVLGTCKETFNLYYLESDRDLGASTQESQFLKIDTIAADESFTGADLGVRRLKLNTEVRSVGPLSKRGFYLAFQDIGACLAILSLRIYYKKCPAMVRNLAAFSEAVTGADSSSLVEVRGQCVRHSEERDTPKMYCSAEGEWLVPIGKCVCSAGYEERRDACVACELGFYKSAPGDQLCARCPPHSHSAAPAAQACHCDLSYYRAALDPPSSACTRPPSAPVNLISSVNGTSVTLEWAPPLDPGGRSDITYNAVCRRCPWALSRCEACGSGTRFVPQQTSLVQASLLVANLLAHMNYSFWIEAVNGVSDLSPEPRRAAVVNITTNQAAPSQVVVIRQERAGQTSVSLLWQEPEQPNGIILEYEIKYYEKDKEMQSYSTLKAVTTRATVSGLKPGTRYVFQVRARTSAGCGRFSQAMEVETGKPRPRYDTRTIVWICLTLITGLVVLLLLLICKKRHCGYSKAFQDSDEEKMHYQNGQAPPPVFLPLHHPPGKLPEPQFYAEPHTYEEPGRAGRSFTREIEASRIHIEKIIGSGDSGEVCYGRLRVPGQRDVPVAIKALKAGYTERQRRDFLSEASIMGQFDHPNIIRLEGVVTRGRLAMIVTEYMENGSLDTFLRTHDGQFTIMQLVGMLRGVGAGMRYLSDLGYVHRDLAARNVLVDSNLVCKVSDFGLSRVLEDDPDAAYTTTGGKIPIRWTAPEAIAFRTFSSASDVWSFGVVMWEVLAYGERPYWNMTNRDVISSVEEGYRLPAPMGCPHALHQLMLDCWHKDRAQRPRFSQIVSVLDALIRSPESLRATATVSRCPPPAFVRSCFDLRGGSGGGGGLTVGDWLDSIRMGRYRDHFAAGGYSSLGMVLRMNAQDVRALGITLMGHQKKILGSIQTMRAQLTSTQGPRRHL

[4] = biological target: Receptor tyrosine-protein kinase erbB-4 (Homo sapiens) (UniProt Q15303); assay: ERBB4 (HER4) Kinase screen; settings: Compound concentration 1.0 uM
[5] = biological target: Protein kinase C zeta type (Homo sapiens) (UniProt Q05513); assay: PRKCZ (PKC zeta) Kinase screen; settings: Compound concentration 1.0 uM
[6] = biological target: T2, Serine/threonine-protein kinase D1 (Homo sapiens) (UniProt Q15139); assay: PRKD1 (PKC mu) Kinase screen; settings: Compound concentration 1.0 uM
T2 sequence (whole entry): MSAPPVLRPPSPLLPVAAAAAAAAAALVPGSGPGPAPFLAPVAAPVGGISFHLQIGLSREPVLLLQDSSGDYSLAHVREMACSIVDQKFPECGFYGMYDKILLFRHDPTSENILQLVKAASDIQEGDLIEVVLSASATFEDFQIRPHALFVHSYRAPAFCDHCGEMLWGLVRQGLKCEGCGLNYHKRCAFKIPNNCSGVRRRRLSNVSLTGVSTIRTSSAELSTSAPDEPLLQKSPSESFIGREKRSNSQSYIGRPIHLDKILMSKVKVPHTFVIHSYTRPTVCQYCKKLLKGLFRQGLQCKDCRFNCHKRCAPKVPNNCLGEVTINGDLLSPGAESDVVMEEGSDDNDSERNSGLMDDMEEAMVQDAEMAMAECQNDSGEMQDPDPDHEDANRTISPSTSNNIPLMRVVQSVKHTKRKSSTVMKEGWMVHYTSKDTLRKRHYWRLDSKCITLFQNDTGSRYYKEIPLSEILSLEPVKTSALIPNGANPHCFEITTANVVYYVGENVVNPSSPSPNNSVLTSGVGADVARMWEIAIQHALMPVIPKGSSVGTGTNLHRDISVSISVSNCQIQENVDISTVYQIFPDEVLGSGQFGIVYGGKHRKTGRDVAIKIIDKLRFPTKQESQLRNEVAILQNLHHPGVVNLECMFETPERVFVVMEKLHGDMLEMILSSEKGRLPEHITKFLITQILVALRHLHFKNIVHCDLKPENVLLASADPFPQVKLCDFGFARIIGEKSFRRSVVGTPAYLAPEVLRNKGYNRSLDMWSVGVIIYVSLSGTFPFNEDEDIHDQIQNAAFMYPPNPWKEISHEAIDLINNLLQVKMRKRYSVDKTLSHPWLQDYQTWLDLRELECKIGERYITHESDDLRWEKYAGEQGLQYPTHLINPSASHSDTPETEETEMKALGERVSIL

[7] = biological target: Proto-oncogene tyrosine-protein kinase Src (Homo sapiens) (UniProt P12931); assay: SRC Kinase screen; settings: Compound concentration 1.0 uM
[8] = species: Rattus norvegicus; assay: Glutamate, NMDA, Polyamine Eurofins-Panlabs radioligand binding assay; type: protein-complex assay; parameters: ligand concentration 2 nM; settings: Compound concentration 10.0 uM
[9] = biological target: Melanin-concentrating hormone receptor 1 (Homo sapiens) (UniProt Q99705); assay: Melanin-Concentrating Hormone MCH1 (SLC1) Eurofins-Panlabs radioligand binding assay; parameters: ligand concentration 0.05 nM; settings: Compound concentration 10.0 uM
[10] = biological target: Cannabinoid receptor 1 (Homo sapiens) (UniProt P21554); settings: Compound concentration 10.0 uM
[11] = biological target: T3, 5-hydroxytryptamine receptor 1A (Homo sapiens) (UniProt P08908); settings: Compound concentration 10.0 uM
T3 sequence (whole entry): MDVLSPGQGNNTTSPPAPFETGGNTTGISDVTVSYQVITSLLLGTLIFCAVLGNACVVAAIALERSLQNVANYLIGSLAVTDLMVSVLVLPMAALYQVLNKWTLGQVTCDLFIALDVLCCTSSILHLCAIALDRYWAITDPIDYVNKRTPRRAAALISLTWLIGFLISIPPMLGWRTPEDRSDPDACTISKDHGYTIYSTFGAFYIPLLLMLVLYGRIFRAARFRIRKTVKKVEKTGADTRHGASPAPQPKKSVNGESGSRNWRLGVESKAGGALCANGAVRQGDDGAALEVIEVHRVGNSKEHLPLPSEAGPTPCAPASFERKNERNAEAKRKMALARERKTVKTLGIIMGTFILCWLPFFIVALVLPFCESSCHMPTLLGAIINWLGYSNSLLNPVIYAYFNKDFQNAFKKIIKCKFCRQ

Measured: inhibition

Sequence of Protein kinase C zeta type (Homo sapiens) (Q05513 whole entry): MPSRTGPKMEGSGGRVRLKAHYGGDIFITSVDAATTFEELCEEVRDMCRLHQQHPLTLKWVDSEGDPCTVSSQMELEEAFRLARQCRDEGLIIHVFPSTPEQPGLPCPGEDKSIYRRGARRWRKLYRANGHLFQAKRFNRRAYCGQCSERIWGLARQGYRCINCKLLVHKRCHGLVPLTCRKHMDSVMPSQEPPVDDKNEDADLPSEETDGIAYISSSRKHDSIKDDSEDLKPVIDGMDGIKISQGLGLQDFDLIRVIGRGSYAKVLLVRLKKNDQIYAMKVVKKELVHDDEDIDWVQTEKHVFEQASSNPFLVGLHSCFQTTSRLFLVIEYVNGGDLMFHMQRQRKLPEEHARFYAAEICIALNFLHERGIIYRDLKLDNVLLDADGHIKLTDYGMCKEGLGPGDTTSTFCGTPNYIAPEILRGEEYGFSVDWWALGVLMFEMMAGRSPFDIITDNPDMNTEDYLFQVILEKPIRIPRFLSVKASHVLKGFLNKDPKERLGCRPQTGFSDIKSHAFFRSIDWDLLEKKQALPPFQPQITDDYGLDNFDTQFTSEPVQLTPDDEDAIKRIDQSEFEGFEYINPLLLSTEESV
Sequence of Melanin-concentrating hormone receptor 1 (Homo sapiens) (Q99705 whole entry): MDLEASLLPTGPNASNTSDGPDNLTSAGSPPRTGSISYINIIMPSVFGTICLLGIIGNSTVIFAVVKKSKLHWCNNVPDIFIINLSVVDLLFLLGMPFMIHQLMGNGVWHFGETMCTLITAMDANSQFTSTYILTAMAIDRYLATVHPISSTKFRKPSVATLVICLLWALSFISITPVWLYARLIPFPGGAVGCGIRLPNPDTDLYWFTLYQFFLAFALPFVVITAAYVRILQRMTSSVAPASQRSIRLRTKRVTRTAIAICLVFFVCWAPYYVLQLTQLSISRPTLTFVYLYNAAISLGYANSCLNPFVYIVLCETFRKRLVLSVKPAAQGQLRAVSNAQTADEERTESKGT
Sequence of Epidermal growth factor receptor (Homo sapiens), P00533 [L861Q] (P00533 whole entry L861Q): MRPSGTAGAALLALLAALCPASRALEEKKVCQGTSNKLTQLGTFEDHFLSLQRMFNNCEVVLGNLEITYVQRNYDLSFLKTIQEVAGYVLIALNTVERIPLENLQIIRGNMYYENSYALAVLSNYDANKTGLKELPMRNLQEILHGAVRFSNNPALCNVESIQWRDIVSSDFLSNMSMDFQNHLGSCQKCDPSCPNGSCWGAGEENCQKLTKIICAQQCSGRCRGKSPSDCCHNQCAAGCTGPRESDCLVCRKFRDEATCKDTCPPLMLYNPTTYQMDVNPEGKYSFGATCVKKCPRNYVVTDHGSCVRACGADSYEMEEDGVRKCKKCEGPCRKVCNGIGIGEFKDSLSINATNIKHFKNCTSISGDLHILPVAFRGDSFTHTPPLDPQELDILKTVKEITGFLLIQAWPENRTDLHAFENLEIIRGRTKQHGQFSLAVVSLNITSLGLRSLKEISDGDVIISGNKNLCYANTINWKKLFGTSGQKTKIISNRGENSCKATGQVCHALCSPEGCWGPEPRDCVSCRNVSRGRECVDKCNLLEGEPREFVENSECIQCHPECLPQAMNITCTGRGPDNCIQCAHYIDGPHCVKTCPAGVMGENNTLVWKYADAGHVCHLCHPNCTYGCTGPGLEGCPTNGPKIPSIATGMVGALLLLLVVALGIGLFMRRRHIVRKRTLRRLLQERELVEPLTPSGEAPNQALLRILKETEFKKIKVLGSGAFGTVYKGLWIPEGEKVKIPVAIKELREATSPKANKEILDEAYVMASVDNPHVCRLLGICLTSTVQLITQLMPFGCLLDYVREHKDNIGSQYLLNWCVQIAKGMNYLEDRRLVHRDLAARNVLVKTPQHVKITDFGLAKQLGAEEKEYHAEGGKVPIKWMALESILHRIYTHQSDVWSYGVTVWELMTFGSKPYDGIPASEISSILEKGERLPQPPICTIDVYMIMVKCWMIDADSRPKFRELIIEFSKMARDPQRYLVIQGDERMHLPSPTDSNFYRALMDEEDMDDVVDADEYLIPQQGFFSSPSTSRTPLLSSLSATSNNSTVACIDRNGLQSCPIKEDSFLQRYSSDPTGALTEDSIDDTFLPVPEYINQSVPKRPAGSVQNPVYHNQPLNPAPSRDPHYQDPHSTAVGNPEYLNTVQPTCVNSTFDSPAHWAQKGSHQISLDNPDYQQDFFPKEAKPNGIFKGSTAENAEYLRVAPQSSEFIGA
Sequence of Cannabinoid receptor 1 (Homo sapiens) (P21554 whole entry): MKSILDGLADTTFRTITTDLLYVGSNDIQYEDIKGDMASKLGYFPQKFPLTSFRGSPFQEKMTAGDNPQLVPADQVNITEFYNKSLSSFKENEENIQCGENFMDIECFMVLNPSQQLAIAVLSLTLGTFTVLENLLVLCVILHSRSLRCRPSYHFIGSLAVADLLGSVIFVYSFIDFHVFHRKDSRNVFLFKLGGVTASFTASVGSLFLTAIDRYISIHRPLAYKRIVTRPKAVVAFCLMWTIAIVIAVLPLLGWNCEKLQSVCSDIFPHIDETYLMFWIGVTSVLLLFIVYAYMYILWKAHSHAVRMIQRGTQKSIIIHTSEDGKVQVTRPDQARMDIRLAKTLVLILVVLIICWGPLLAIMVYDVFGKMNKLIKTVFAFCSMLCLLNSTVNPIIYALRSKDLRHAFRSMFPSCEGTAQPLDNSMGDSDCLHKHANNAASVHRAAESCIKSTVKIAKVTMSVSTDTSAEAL
Sequence of Proto-oncogene tyrosine-protein kinase Src (Homo sapiens) (P12931 2-536 limits assumed): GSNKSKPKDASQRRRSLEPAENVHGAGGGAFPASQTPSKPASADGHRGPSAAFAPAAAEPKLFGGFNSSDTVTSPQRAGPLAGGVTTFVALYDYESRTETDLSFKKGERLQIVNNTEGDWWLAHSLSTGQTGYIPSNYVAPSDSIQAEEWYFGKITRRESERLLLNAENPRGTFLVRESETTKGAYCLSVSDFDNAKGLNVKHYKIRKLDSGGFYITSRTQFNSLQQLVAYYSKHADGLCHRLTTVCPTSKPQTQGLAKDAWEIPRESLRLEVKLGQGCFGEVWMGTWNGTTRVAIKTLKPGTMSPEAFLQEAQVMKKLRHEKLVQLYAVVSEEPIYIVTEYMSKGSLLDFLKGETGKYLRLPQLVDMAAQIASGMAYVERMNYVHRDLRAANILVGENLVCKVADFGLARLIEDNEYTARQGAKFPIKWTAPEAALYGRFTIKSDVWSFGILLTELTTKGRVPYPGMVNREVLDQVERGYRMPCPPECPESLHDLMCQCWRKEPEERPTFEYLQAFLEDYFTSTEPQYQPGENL
Sequence of Receptor tyrosine-protein kinase erbB-4 (Homo sapiens) (Q15303 whole entry): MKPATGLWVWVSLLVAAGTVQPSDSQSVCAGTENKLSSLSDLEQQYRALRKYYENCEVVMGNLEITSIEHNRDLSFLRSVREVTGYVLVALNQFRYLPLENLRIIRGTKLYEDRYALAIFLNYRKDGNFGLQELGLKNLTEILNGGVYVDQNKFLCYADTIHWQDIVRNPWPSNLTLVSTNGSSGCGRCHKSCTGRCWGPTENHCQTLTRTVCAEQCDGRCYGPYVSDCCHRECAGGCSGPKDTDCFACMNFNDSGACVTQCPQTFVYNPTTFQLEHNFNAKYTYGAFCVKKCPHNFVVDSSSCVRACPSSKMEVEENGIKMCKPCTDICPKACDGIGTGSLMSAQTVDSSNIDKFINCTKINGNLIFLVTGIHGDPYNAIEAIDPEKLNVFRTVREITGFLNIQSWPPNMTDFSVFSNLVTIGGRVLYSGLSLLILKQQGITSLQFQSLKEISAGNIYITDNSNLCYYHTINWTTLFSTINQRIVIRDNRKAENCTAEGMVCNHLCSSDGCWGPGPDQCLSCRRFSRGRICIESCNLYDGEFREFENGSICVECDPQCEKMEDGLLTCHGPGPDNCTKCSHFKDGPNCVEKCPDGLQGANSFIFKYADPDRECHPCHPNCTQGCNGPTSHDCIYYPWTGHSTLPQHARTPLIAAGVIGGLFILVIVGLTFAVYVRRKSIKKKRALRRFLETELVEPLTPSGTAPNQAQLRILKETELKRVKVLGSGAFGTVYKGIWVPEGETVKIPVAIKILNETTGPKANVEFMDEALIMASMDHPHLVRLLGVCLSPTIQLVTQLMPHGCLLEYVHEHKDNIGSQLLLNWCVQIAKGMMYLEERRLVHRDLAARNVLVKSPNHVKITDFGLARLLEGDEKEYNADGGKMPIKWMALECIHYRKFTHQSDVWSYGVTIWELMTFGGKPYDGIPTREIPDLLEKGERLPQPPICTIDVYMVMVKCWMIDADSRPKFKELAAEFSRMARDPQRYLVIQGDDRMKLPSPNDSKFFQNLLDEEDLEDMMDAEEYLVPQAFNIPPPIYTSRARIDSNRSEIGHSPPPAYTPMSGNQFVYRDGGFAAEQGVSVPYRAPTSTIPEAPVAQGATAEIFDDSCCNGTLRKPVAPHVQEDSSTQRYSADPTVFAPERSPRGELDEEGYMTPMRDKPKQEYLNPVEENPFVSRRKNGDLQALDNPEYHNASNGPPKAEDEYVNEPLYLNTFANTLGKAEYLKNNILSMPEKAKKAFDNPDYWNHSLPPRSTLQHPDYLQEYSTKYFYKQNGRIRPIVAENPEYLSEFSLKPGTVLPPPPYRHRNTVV

C[C@@H]1CN(c2cc(-c3n[nH]c4ccc(OC5(C)CC5)cc34)ncn2)C[C@H](C)O1 [MLi-2]
inactive: [1] 7.26% | [2] 9.16% | [3] 7.44% | [4] 11.9% | [5] -4.02% | [6] 13.2% | [7] 4.97% | [8] 19% | [9] 1% | [10] 20% | [11] -6%
